Measurements: US12084467B2, “Therapeutic compounds for HIV virus infection” (Gilead Sciences, Inc., priority 2021, dated 2024)
In brackets after ≈: the same amount, converted by molar mass.

Tests used:
physchem = settings: 25 °C, fassif, thermodynamic from solid
[1] = Kinetic solubility analysis (CLND: total chemiluminescent nitrogen determination); settings: 1.0% DMSO, 24-hour incubation at ambient temperature, maximum theoretical concentration 100 μM; for pH 2 solubility: 0.1N HCl; for pH 7 solubility: 1×PBS buffer (pH 7.4)
[2] = Solubility in simulated intestinal fluids (FaSSIF / FeSSIF); settings: 25 °C, thermodynamic from solid
[3] = fasted state simulated intestinal fluid (FaSSIF), fassif
[4] = fed state simulated intestinal fluid (FeSSIF), fessif

Compound	solubility (physchem) [µg/mL]	pH 2 solubility [1] [μM]	pH 7 solubility [1] [μM]	solubility [2, 3] [µg/mL]	solubility [2, 4] [µg/mL]
CC(C)(C#Cc1ccc(-c2ccc(Cl)c3c(N(C(=O)[C@H]4C[C@H](C(=O)O)C4)S(C)(=O)=O)nn(CC(F)(F)F)c23)c([C@H](Cc2cc(F)cc(F)c2)NC(=O)Cn2nc(C(F)(F)F)c3c2C(F)(F)[C@@H]2C[C@H]32)n1)S(C)(=O)=O [Compound 13, (1S,3r)-3-((4-chloro-7-(2-((S)-1-(2-((3bS,4aR)-5,5-difluoro-3-(trifluoromethyl)-3b,4,4a,5-tetrahydro-1H-cyclopropa[3,4]cyclopenta[1,2-c]pyrazol-1-yl)acetamido)-2-(3,5-difluorophenyl)ethyl)-6-(3-methyl-3-(methylsulfonyl)but-1-yn-1-yl)pyridin-3-yl)-1-(2,2,2-trifluoroethyl)-1H-indazol-3-yl)(methylsulfonyl)carbamoyl)cyclobutane-1-carboxylic acid]	9 (≈ 8.22 µM)	1	15	–	–
CC(C)(C#Cc1ccc(-c2ccc(Cl)c3c(N(C(=O)N4CCC[C@H]4C(=O)OCOP(=O)(O)O)S(C)(=O)=O)nn(CC(F)(F)F)c23)c([C@H](Cc2cc(F)cc(F)c2)NC(=O)Cn2nc(C(F)(F)F)c3c2C(F)(F)[C@@H]2C[C@H]32)n1)S(C)(=O)=O [Compound 27, (phosphonooxy)methyl ((4-chloro-7-(2-((S)-1-(2-((3bS,4aR)-5,5-difluoro-3-(trifluoromethyl)-3b,4,4a,5-tetrahydro-1H-cyclopropa[3,4]cyclopenta[1,2-c]pyrazol-1-yl)acetamido)-2-(3,5-difluorophenyl)ethyl)-6-(3-methyl-3-(methylsulfonyl)but-1-yn-1-yl)pyridin-3-yl)-1-(2,2,2-trifluoroethyl)-1H-indazol-3-yl)(methylsulfonyl)carbamoyl)-L-prolinate]	512 (≈ 420 µM)	2	68	–	–
CC(C)(C#Cc1ccc(-c2ccc(Cl)c3c(N(C(=O)N4CCC[C@H]4CNC(=O)OCOP(=O)(O)O)S(C)(=O)=O)nn(CC(F)(F)F)c23)c([C@H](Cc2cc(F)cc(F)c2)NC(=O)Cn2nc(C(F)(F)F)c3c2C(F)(F)[C@@H]2C[C@H]32)n1)S(C)(=O)=O [Compound 32, (phosphonooxy)methyl (((S)-1-((4-chloro-7-(2-((S)-1-(2-((3bS,4aR)-5,5-difluoro-3-(trifluoromethyl)-3b,4,4a,5-tetrahydro-1H-cyclopropa[3,4]cyclopenta[1,2-c]pyrazol-1-yl)acetamido)-2-(3,5-difluorophenyl)ethyl)-6-(3-methyl-3-(methylsulfonyl)but-1-yn-1-yl)pyridin-3-yl)-1-(2,2,2-trifluoroethyl)-1H-indazol-3-yl)(methylsulfonyl)carbamoyl)pyrrolidin-2-yl)methyl)carbamate]	–	1	100	478 (≈ 383 µM)	306 (≈ 245 µM)
CC(C)(C#Cc1ccc(-c2ccc(Cl)c3c(N(C(=O)c4ccccc4COP(=O)(O)O)S(C)(=O)=O)nn(CC(F)(F)F)c23)c([C@H](Cc2cc(F)cc(F)c2)NC(=O)Cn2nc(C(F)(F)F)c3c2C(F)(F)[C@@H]2C[C@H]32)n1)S(C)(=O)=O [Compound 22, 2-((4-chloro-7-(2-((S)-1-(2-((3bS,4aR)-5,5-difluoro-3-(trifluoromethyl)-3b,4,4a,5-tetrahydro-1H-cyclopropa[3,4]cyclopenta[1,2-c]pyrazol-1-yl)acetamido)-2-(3,5-difluorophenyl)ethyl)-6-(3-methyl-3-(methylsulfonyl)but-1-yn-1-yl)pyridin-3-yl)-1-(2,2,2-trifluoroethyl)-1H-indazol-3-yl)(methylsulfonyl)carbamoyl)benzyl dihydrogen phosphate]	–	1	100	618	534
CC(C)(C#Cc1ccc(-c2ccc(Cl)c3c(N(C(=O)N4CCC[C@H]4CN(CCC(=O)O)C(=O)OCOP(=O)(O)O)S(C)(=O)=O)nn(CC(F)(F)F)c23)c([C@H](Cc2cc(F)cc(F)c2)NC(=O)Cn2nc(C(F)(F)F)c3c2C(F)(F)[C@@H]2C[C@H]32)n1)S(C)(=O)=O [Compound 34, 3-((((S)-1-((4-chloro-7-(2-((S)-1-(2-((3bS,4aR)-5,5-difluoro-3-(trifluoromethyl)-3b,4,4a,5-tetrahydro-1H-cyclopropa[3,4]cyclopenta[1,2-c]pyrazol-1-yl)acetamido)-2-(3,5-difluorophenyl)ethyl)-6-(3-methyl-3-(methylsulfonyl)but-1-yn-1-yl)pyridin-3-yl)-1-(2,2,2-trifluoroethyl)-1H-indazol-3-yl)(methylsulfonyl)carbamoyl)pyrrolidin-2-yl)methyl)(((phosphonooxy)methoxy)carbonyl)amino)propanoic acid]	–	1	100	861 (≈ 652 µM)	1710 (≈ 1290 µM)
CC(C)(C#Cc1ccc(-c2ccc(Cl)c3c(N(C(=O)c4ccccc4CN(CCC(=O)O)C(=O)OCOP(=O)(O)O)S(C)(=O)=O)nn(CC(F)(F)F)c23)c([C@H](Cc2cc(F)cc(F)c2)NC(=O)Cn2nc(C(F)(F)F)c3c2C(F)(F)[C@@H]2C[C@H]32)n1)S(C)(=O)=O [Compound 21, 3-((2-((4-chloro-7-(2-((S)-1-(2-((3bS,4aR)-5,5-difluoro-3-(trifluoromethyl)-3b,4,4a,5-tetrahydro-1H-cyclopropa[3,4]cyclopenta[1,2-c]pyrazol-1-yl)acetamido)-2-(3,5-difluorophenyl)ethyl)-6-(3-methyl-3-(methylsulfonyl)but-1-yn-1-yl)pyridin-3-yl)-1-(2,2,2-trifluoroethyl)-1H-indazol-3-yl)(methylsulfonyl)carbamoyl)benzyl)(((phosphonooxy)methoxy)carbonyl)amino)propanoi c acid]	–	1	100	1110 (≈ 835 µM)	1420 (≈ 1070 µM)
CC(C)(C#Cc1ccc(-c2ccc(Cl)c3c(N(C(=O)c4ccccc4C(=O)OCOP(=O)(O)O)S(C)(=O)=O)nn(CC(F)(F)F)c23)c([C@H](Cc2cc(F)cc(F)c2)NC(=O)Cn2nc(C(F)(F)F)c3c2C(F)(F)[C@@H]2C[C@H]32)n1)S(C)(=O)=O [Compound 19, (phosphonooxy)methyl 2-((4-chloro-7-(2-((S)-1-(2-((3bS,4aR)-5,5-difluoro-3-(trifluoromethyl)-3b,4,4a,5-tetrahydro-1H-cyclopropa[3,4]cyclopenta[1,2-c]pyrazol-1-yl)acetamido)-2-(3,5-difluorophenyl)ethyl)-6-(3-methyl-3-(methylsulfonyl)but-1-yn-1-yl)pyridin-3-yl)-1-(2,2,2-trifluoroethyl)-1H-indazol-3-yl)(methylsulfonyl)carbamoyl)benzoate]	–	2	75	816 (≈ 665 µM)	487 (≈ 397 µM)
CC(C)(C#Cc1ccc(-c2ccc(Cl)c3c(N(C(=O)[C@H]4C[C@H]4C(=O)OCOP(=O)(O)O)S(C)(=O)=O)nn(CC(F)(F)F)c23)c([C@H](Cc2cc(F)cc(F)c2)NC(=O)Cn2nc(C(F)(F)F)c3c2C(F)(F)[C@@H]2C[C@H]32)n1)S(C)(=O)=O [Compound 12, (phosphonooxy)methyl (1R,2S)-2-((4-chloro-7-(2-((S)-1-(2-((3bS,4aR)-5,5-difluoro-3-(trifluoromethyl)-3b,4,4a,5-tetrahydro-1H-cyclopropa[3,4]cyclopenta[1,2-c]pyrazol-1-yl)acetamido)-2-(3,5-difluorophenyl)ethyl)-6-(3-methyl-3-(methylsulfonyl)but-1-yn-1-yl)pyridin-3-yl)-1-(2,2,2-trifluoroethyl)-1H-indazol-3-yl)(methylsulfonyl)carbamoyl)cyclopropane-1-carboxylate]	2100 (≈ 1760 µM)	1	71	–	–
CC(C)(C#Cc1ccc(-c2ccc(Cl)c3c(N(C(=O)[C@@H]4C[C@@H]4COP(=O)(O)O)S(C)(=O)=O)nn(CC(F)(F)F)c23)c([C@H](Cc2cc(F)cc(F)c2)NC(=O)Cn2nc(C(F)(F)F)c3c2C(F)(F)[C@@H]2C[C@H]32)n1)S(C)(=O)=O [Compound 11]	–	1	61	401 (≈ 350 µM)	355 (≈ 310 µM)
CC(C)(C#Cc1ccc(-c2ccc(Cl)c3c(N(C(=O)N4CCOC[C@H]4C(=O)OCOP(=O)(O)O)S(C)(=O)=O)nn(CC(F)(F)F)c23)c([C@H](Cc2cc(F)cc(F)c2)NC(=O)Cn2nc(C(F)(F)F)c3c2C(F)(F)[C@@H]2C[C@H]32)n1)S(C)(=O)=O [Compound 23, (phosphonooxy)methyl (S)-4-((4-chloro-7-(2-((S)-1-(2-((3bS,4aR)-5,5-difluoro-3-(trifluoromethyl)-3b,4,4a,5-tetrahydro-1H-cyclopropa[3,4]cyclopenta[1,2-c]pyrazol-1-yl)acetamido)-2-(3,5-difluorophenyl)ethyl)-6-(3-methyl-3-(methylsulfonyl)but-1-yn-1-yl)pyridin-3-yl)-1-(2,2,2-trifluoroethyl)-1H-indazol-3-yl)(methylsulfonyl)carbamoyl)morpholine-3-carboxylate]	–	2	17	377 (≈ 305 µM)	139 (≈ 113 µM)
